Legend:
Porphyromonas gingivalis = test: Inhibiting growth of periodontitis-causing bacteria (absorbance 600 nm); assay type: cell-based; details: Pg
Method: (§1) To evaluate the antibacterial activity, representative periodontitis-causing bacteria, Aggregatibacter actinomycetemcomitans and Porphyromonas gingivalis, were used. Each bacterium was inoculated into BHI (brain heart infusion) liquid medium and cultured in an anaerobic incubator at 37° C. and 120 rpm for 48 hours. After incubation, the peptide having the amino acid sequence of SEQ ID NO: 1 was treated at 100 μM, 250 μM, and 500 μM. As a positive control, minocycline (Merck, M9511) was inoculated at 500 ng/ml, and then 24 hours later, the absorbance was measured at 600 nm using a spectrophotometer to confirm a degree of bacterial growth.

[1] = test system: Aggregatibacter actinomycetemcomitans; test: as above; assay type: cell-based; details: Aa
Method: as §1

TNF-α = test: ELISA of TNF-α secreted by LPS-treated THP-1 macrophages; assay type: cell-based, human; details: 1 μg/ml LPS, 200 μM peptide, 24 hours, compared with 20 ng/ml IL-4
Method: (§2) Anti-inflammatory activity was verified using human monocyte cell lines (THP-1, ATCC, TIB-202). In the case of monocyte cell lines, PMA (Phorbol 12-myristate 13-acetate, Merck, P1585) was inoculated to differentiate monocytes into macrophages, and then treated with 1 μg/ml LPS (lipopolysaccharide, Merck, L3024), an inflammation inducer. […] The amount of pro-inflammatory cytokines IL-6 (R&D system, D6050) and TNF-α secreted by cells present in the medium was confirmed through ELISA (enzyme-linked immunosorbent assay).

[2] = test system: artificial biofilm of Aggregatibacter actinomycetemcomitans and Porphyromonas gingivalis; test: Antibacterial activity in artificial biofilm on titanium disk (LIVE/DEAD staining); assay type: cell-based; details: 24 hours after inoculation; 50 μg/ml = 29 μM
Method: Periodontitis-causing bacteria exist in the oral cavity in a form of a biofilm, and thus in order to imitate this, an artificial biofilm was created on the surface of a titanium disk using A. a. (Aggregatibacter actinomycetemcomitans) and P. g. (Porphyromonas gingivalis) bacteria. Saliva and bacteria were mixed on a titanium disk, placed in BHI liquid medium, and cultured in an anaerobic incubator at 37° C. After 72 hours, 50 μg/ml (=29 μM), 100 μg/ml (=58 μM), 250 μg/ml (=144 μM), and 500 μg/ml (=288 μM) peptides and 1 μg/ml minocycline as a positive control were inoculated. 24 hours later after inoculation, a titanium disk with biofilm formed on the surface was obtained and the biofilm was stained using the Filmtracer LIVE/DEAD Biofilm Viability Kit (Thermo Fisher, L10316). Live bacteria are stained green, and dead bacteria are stained red. The titanium disk was observed using a confocal scanning fluorescence microscope.

phosphorylated NF-κB = test: Western blot of pNFkB in LPS-treated Raw264.7 cells; assay type: cell-based, mouse
Method: (§3) Raw264.7 cells were purchased from ATCC (American Type Culture Collection) and used in the experiment. Raw264.7 cells were cultured in a CO2 incubator at 37° C. supplied with 5% CO2 and 95% air using DMEM (Dulbecco's modified Eagle medium) medium supplemented with 10% FBS and 100 units/ml antibiotics (penicillin-streptomycin).
(§4) Raw264.7 cells were treated with 200 μM of the peptide having the amino acid sequence of SEQ ID NO: 1 for 30 minutes, and then treated with 1 μg/ml LPS (lipopolysaccharide, Merck, L3024). After 8 hours, the treated cells were collected, protease inhibitor cocktail and phosphatase inhibitor cocktail were added to Radioimmunoprecipitation assay buffer (RIPA buffer solution, Thermo Fisher, 89900), and the cells were treated to lyse the cells. After centrifuging the cell lysate and collecting the supernatant, the concentration of the cell lysate was measured using a bicinchoninic acid assay (BCA assay, Thermo Fisher, 23227), and RIPA buffer solution was added thereto to prepare the cell lysate to a final concentration of 5 mg/mL. Then, it was mixed with a buffer solution including 1M Tris-HCl (pH 6.8), 50% glycerol, and 10% SDS in a 4:1 ratio, and then sodium dodecyl sulfate-poly acrylamide gel electrophoresis (SDS-PAGE) was performed. […]

phosphorylated IκBα = test: Western blot of plkBa in LPS-treated Raw264.7 cells; assay type: cell-based, mouse
Method: as §3, §4

IL-6 = test: ELISA of IL-6 secreted by LPS-treated THP-1 macrophages; assay type: cell-based, human; details: 1 μg/ml LPS, 200 μM peptide, 24 hours, compared with 20 ng/ml IL-4
Method: as §2

Raw264.7 cells = test: Cell penetration ability at the cellular level (confocal microscopy); assay type: cell-based, mouse; details: Rhodamine B labeled peptide, 50, 100 and 200 μM, 1 hour
Method: Raw264.7 cells were distributed 3×10^4 each into a 4-well chamber and cultured in DMEM medium for 24 hours to stabilize the cells. After 24 hours, fluorescently labeled peptide was added to the medium at concentrations of 50, 100, and 200 μM. After 1 hour of peptide treatment, a degree of penetration of the peptide into cells was observed using a confocal scanning fluorescence microscope. Cell nuclei were stained using 4′,6-diamidino-2-phenylindole (DAPI, Thermo Fisher, D1306). DIC represents the case observed under a general microscope, Nuceli represents the nucleus of a cell, Peptide represents the degree of penetration of a peptide bound to rhodamine B, and MERGE represents an image that overlaps images of DIC, Nuclei, and the penetrated peptide.

[3] = 200 μM peptide for 30 minutes, then 1 μg/ml LPS, 8 hours

Q: Which results are given for “GKCSTRGRKSSRRKK (PEPTIDE HAVING ANTIBACTERIAL, …ON OR TISSUE …ON) [SEQ ID NO: 1, 15-mer peptide having antibacterial, anti-inflammatory and cell penetrating ability]”?
A: effect compared to minocycline (Porphyromonas gingivalis; all concentration ranges (100, 250, 500 μM) vs minocycline 500 ng/ml): better effect than minocycline; survival rate of bacteria (Porphyromonas gingivalis; at 100 μM or more, 24 hours): less than or equal to 50%; survival rate of bacteria ([1]; at 250 μM or more, 24 hours): less than or equal to 50%; survival rate compared to minocycline ([1]; peptide 500 μM vs minocycline 500 ng/ml): higher than when treated with minocycline 500 ng/ml, but showed a similar effect; TNF-α value (TNF-α): lowered to a similar level as when treated with IL-4; concentration at which killed bacteria (red) were observed in biofilm [2]: ≥ 50 µg/mL; expression of pNFκB (phosphorylated NF-κB; [3]): suppressed; effect on the expression of pNFκB (phosphorylated NF-κB; only the peptide, without LPS): no effect; expression of plkBa (phosphorylated IκBα; [3]): suppressed; effect on the expression of plkBa (phosphorylated IκBα; only the peptide, without LPS): no effect; IL-6 value (IL-6): lowered to a similar level as when treated with IL-4; concentration dependence of fluorescence intensity in cells (Raw264.7 cells): as the concentration of peptide increased, the intensity of fluorescence also increased; fluorescence of rhodamine B in cells (Raw264.7 cells): fluorescence of rhodamine B (red) could be confirmed

Reference: US20250115642A1, “PEPTIDE HAVING ANTIBACTERIAL, ANTI-INFLAMMATORY OR TISSUE REGENERATION ABILITY AND USE THEREOF” (priority 2022, published 2025)
